Data published in the supplement of paper PMC10733146.

What was measured:
Experiment in all cases: viability relative to DMSO control (fraction); higher = less drug effect (more viable cells)
Details in all cases: 48 h
[1] = system: primary AML patient cells (S006)
Outline: (§1)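 Viability is given as CellTiter-Glo luminescence relative to the median of 16 inner DMSO wells. Fresh or cryopreserved primary mononuclear tumour cells from blood, bone marrow (both Ficoll-isolated) or processed lymph node were plated at 4 × 10^4 cells per well in 384-well plates against five pre-plated compound concentrations, one well each. Incubation lasted 48 h at 37 °C and 5% CO2 in RPMI-1640 with penicillin/streptomycin, L-glutamine and human serum.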

[2] = system: primary ALL patient cells (S088)
Outline: as §1

[3] = system: primary CLL patient cells (S043)
Outline: as §1

[4] = system: primary CLL patient cells (S031)
Outline: as §1

[5] = system: primary DLBCL patient cells (S076)
Outline: as §1

[6] = system: primary AML patient cells (S072)
Outline: as §1

[7] = system: primary MCL patient cells (S063)
Outline: as §1

[8] = system: primary AML patient cells (S089)
Outline: as §1

[9] = system: primary AML patient cells (S060)
Outline: as §1

[10] = system: primary T-NHL patient cells (S058)
Outline: as §1

[11] = system: primary AML patient cells (S071)
Outline: as §1

[12] = system: primary AML patient cells (S079)
Outline: as §1

[13] = system: primary DLBCL patient cells (S049)
Outline: as §1

[14] = system: primary AML patient cells (S055)
Outline: as §1

[15] = system: primary AML patient cells (S056)
Outline: as §1

[16] = system: primary ALL patient cells (S048)
Outline: as §1

[17] = system: primary DLBCL patient cells (S082)
Outline: as §1

For `CC(=O)Nc1cccc(-n2c(=O)n(C3CC3)c(=O)c3c(Nc4ccc(I)cc4F)n(C)c(=O)c(C)c32)c1` [Trametinib], the viability ([1]; 0.0008 µM) was 0.888, the viability ([1]; 0.004 µM) was 0.939 and the viability ([1]; 0.02 µM) was 0.787. For the same molecule, the viability ([1]; 0.1 µM) was 0.86, the viability ([1]; 0.5 µM) was 0.798 and the viability ([2]; 0.0008 µM) was 0.62. It also gave a viability ([2]; 0.004 µM) of 0.548, a viability ([2]; 0.02 µM) of 0.545 and a viability ([2]; 0.1 µM) of 0.503. The viability ([2]; 0.5 µM) was 0.504, the viability ([3]; 0.0008 µM) was 0.825 and the viability ([3]; 0.004 µM) was 0.769. For the same molecule, the viability ([3]; 0.02 µM) was 0.777, the viability ([3]; 0.1 µM) was 0.748 and the viability ([3]; 0.5 µM) was 0.744. The viability ([4]; 0.0008 µM) was 0.648, the viability ([4]; 0.004 µM) was 0.49 and the viability ([4]; 0.02 µM) was 0.379. The viability ([4]; 0.1 µM) was 0.349, the viability ([4]; 0.5 µM) was 0.311 and the viability ([5]; 0.0008 µM) was 0.752. The viability ([5]; 0.004 µM) was 0.789, the viability ([5]; 0.02 µM) was 0.63 and the viability ([5]; 0.1 µM) was 0.706. It also gave a viability ([5]; 0.5 µM) of 0.648, a viability ([6]; 0.0008 µM) of 0.907 and a viability ([6]; 0.004 µM) of 0.859. For the same molecule, the viability ([6]; 0.02 µM) was 0.751, the viability ([6]; 0.1 µM) was 0.732 and the viability ([6]; 0.5 µM) was 0.69. For the same molecule, the viability ([7]; 0.0008 µM) was 0.991, the viability ([7]; 0.004 µM) was 0.973 and the viability ([7]; 0.02 µM) was 0.987. The viability ([7]; 0.1 µM) was 0.949, the viability ([7]; 0.5 µM) was 0.936 and the viability ([8]; 0.0008 µM) was 0.635. The viability ([8]; 0.004 µM) was 0.57, the viability ([8]; 0.02 µM) was 0.558 and the viability ([8]; 0.1 µM) was 0.529. It also gave a viability ([8]; 0.5 µM) of 0.539, a viability ([9]; 0.0008 µM) of 1.04 and a viability ([9]; 0.004 µM) of 0.797. For the same molecule, the viability ([9]; 0.02 µM) was 0.681, the viability ([9]; 0.1 µM) was 0.657 and the viability ([9]; 0.5 µM) was 0.642. The viability ([10]; 0.0008 µM) was 0.918, the viability ([10]; 0.004 µM) was 0.98 and the viability ([10]; 0.02 µM) was 0.969. It also gave a viability ([10]; 0.1 µM) of 0.967, a viability ([10]; 0.5 µM) of 0.934 and a viability ([11]; 0.0008 µM) of 0.8. It also gave a viability ([11]; 0.004 µM) of 0.789, a viability ([11]; 0.02 µM) of 0.757 and a viability ([11]; 0.1 µM) of 0.744. The viability ([11]; 0.5 µM) was 0.708, the viability ([12]; 0.0008 µM) was 0.703 and the viability ([12]; 0.004 µM) was 0.655. For the same molecule, the viability ([12]; 0.02 µM) was 0.556, the viability ([12]; 0.1 µM) was 0.538 and the viability ([12]; 0.5 µM) was 0.504. The viability ([13]; 0.0008 µM) was 0.769, the viability ([13]; 0.004 µM) was 0.834 and the viability ([13]; 0.02 µM) was 0.705. For the same molecule, the viability ([13]; 0.1 µM) was 0.729, the viability ([13]; 0.5 µM) was 0.658 and the viability ([14]; 0.0008 µM) was 0.797. For the same molecule, the viability ([14]; 0.004 µM) was 0.582, the viability ([14]; 0.02 µM) was 0.585 and the viability ([14]; 0.1 µM) was 0.559. For the same molecule, the viability ([14]; 0.5 µM) was 0.558, the viability ([15]; 0.0008 µM) was 0.77 and the viability ([15]; 0.004 µM) was 0.66. The viability ([15]; 0.02 µM) was 0.588, the viability ([15]; 0.1 µM) was 0.535 and the viability ([15]; 0.5 µM) was 0.514. For the same molecule, the viability ([16]; 0.0008 µM) was 0.818, the viability ([16]; 0.004 µM) was 0.766 and the viability ([16]; 0.02 µM) was 0.674. The viability ([16]; 0.1 µM) was 0.666, the viability ([16]; 0.5 µM) was 0.592 and the viability ([17]; 0.0008 µM) was 0.835. The viability ([17]; 0.004 µM) was 0.828, the viability ([17]; 0.02 µM) was 0.727 and the viability ([17]; 0.1 µM) was 0.702. For the same molecule, the viability ([17]; 0.5 µM) was 0.651.

Molecule `CS(=O)(=O)c1ccc(C(=O)Nc2ccc(Cl)c(-c3ccccn3)c2)c(Cl)c1` [Vismodegib] has a viability ([1]; 0.024 µM) of 0.902, a viability ([1]; 0.12 µM) of 0.951 and a viability ([1]; 0.6 µM) of 0.886. It also gave a viability ([1]; 3 µM) of 0.885, a viability ([1]; 15 µM) of 0.954 and a viability ([2]; 0.024 µM) of 0.762. It also gave a viability ([2]; 0.12 µM) of 0.764, a viability ([2]; 0.6 µM) of 0.779 and a viability ([2]; 3 µM) of 0.797. It also gave a viability ([2]; 15 µM) of 0.862, a viability ([3]; 0.024 µM) of 0.915 and a viability ([3]; 0.12 µM) of 0.903. It also gave a viability ([3]; 0.6 µM) of 0.923, a viability ([3]; 3 µM) of 0.922 and a viability ([3]; 15 µM) of 0.965. It also gave a viability ([4]; 0.024 µM) of 0.85, a viability ([4]; 0.12 µM) of 0.996 and a viability ([4]; 0.6 µM) of 0.889. The viability ([4]; 3 µM) was 0.867, the viability ([4]; 15 µM) was 0.897 and the viability ([5]; 0.024 µM) was 1.01. For the same molecule, the viability ([5]; 0.12 µM) was 1.07, the viability ([5]; 0.6 µM) was 1.07 and the viability ([5]; 3 µM) was 1.05. It also gave a viability ([5]; 15 µM) of 1.01, a viability ([6]; 0.024 µM) of 0.969 and a viability ([6]; 0.12 µM) of 0.954. The viability ([6]; 0.6 µM) was 0.903, the viability ([6]; 3 µM) was 0.902 and the viability ([6]; 15 µM) was 0.927. For the same molecule, the viability ([7]; 0.024 µM) was 0.93, the viability ([7]; 0.12 µM) was 0.956 and the viability ([7]; 0.6 µM) was 0.911. For the same molecule, the viability ([7]; 3 µM) was 0.925, the viability ([7]; 15 µM) was 0.921 and the viability ([8]; 0.024 µM) was 0.87. The viability ([8]; 0.12 µM) was 0.881, the viability ([8]; 0.6 µM) was 0.93 and the viability ([8]; 3 µM) was 0.98. For the same molecule, the viability ([8]; 15 µM) was 0.642, the viability ([9]; 0.024 µM) was 0.945 and the viability ([9]; 0.12 µM) was 0.966. The viability ([9]; 0.6 µM) was 0.97, the viability ([9]; 3 µM) was 0.971 and the viability ([9]; 15 µM) was 0.997. The viability ([10]; 0.024 µM) was 0.913, the viability ([10]; 0.12 µM) was 0.978 and the viability ([10]; 0.6 µM) was 0.953. The viability ([10]; 3 µM) was 0.926, the viability ([10]; 15 µM) was 1.01 and the viability ([11]; 0.024 µM) was 0.865. It also gave a viability ([11]; 0.12 µM) of 0.899, a viability ([11]; 0.6 µM) of 0.879 and a viability ([11]; 3 µM) of 0.906. The viability ([11]; 15 µM) was 0.891, the viability ([12]; 0.024 µM) was 0.897 and the viability ([12]; 0.12 µM) was 0.894. The viability ([12]; 0.6 µM) was 0.899, the viability ([12]; 3 µM) was 0.871 and the viability ([12]; 15 µM) was 0.818. For the same molecule, the viability ([13]; 0.024 µM) was 0.909, the viability ([13]; 0.12 µM) was 0.939 and the viability ([13]; 0.6 µM) was 0.887. For the same molecule, the viability ([13]; 3 µM) was 0.878, the viability ([13]; 15 µM) was 0.887 and the viability ([14]; 0.024 µM) was 0.914. It also gave a viability ([14]; 0.12 µM) of 0.927, a viability ([14]; 0.6 µM) of 0.931 and a viability ([14]; 3 µM) of 0.925. It also gave a viability ([14]; 15 µM) of 0.964, a viability ([15]; 0.024 µM) of 0.986 and a viability ([15]; 0.12 µM) of 1.07. The viability ([15]; 0.6 µM) was 0.913, the viability ([15]; 3 µM) was 0.783 and the viability ([15]; 15 µM) was 0.845. The viability ([16]; 0.024 µM) was 0.921, the viability ([16]; 0.12 µM) was 0.941 and the viability ([16]; 0.6 µM) was 0.933. The viability ([16]; 3 µM) was 0.948, the viability ([16]; 15 µM) was 1.1 and the viability ([17]; 0.024 µM) was 0.89. It also gave a viability ([17]; 0.12 µM) of 0.939, a viability ([17]; 0.6 µM) of 0.915 and a viability ([17]; 3 µM) of 0.933. It also gave a viability ([17]; 15 µM) of 1.07.
